How the values were obtained:
MKP-1 protein = assay: Induction of MKP-1 protein expression in PC12 cells (Western blotting); assay type: cell-based, rat; conditions: serum-free, NGF 10 ng/ml or compounds 10 μm, 30 minutes, WB densitometry
Method: (§1) PC12 cells were cultured in the absence of serum, exactly as described above in example 5, and then treated for 30 minutes with NGF, at the final concentration of 10 ng/ml, or alternatively with the compounds of formula (I), at the final concentration of 10 μm; subsequently, the cells were lysed, and analysed by WB, using antibodies specific for the MKP-1 protein.

Murine cardiomyocytes = assay: Apoptosis induced by ROS after hypoxia/reperfusion, Annexin-V flow cytometry; assay type: cell-based; conditions: cells cultured in hypoxia, end of reperfusion period, vs controls
p38 MAPK protein = assay: Dephosphorylation of p38 MAPK protein in serum-deprived PC12 cells (Western blotting); assay type: cell-based, rat; conditions: serum deprivation 6 hours, NGF 10 ng/ml or compounds 10 μm, 30 minutes, WB
Method: as §1, with “and” for “and then”, “I,” for “(I),”, “μm;” for “μm; subsequently,”, “subsequently lysed” for “lysed,”, “phosphorylated form of the enzyme.” for “MKP-1 protein.”
A homogeneity control of protein load on gel, normalisation with β-actin is reported. (FIG. 3).

TrkA receptor = target: T1, TrkA receptor (Rattus norvegicus, UniProt P35739); assay: Autophosphorylation of the TrkA receptor in PC12 cells (Western blotting); assay type: cell-based; conditions: serum-free 6 hours, NGF 10 ng/ml or compounds 10 μm, 20 minutes, WB, ratio to total TrkA
T1 construct: Autophosphorylation of the TrkA receptor on PC12 cells when incubated with NGF or with a mimetic; endogenous in cells; host or cells: PC12 rat pheochromocytoma cells
T1 sequence (P35739 33-799): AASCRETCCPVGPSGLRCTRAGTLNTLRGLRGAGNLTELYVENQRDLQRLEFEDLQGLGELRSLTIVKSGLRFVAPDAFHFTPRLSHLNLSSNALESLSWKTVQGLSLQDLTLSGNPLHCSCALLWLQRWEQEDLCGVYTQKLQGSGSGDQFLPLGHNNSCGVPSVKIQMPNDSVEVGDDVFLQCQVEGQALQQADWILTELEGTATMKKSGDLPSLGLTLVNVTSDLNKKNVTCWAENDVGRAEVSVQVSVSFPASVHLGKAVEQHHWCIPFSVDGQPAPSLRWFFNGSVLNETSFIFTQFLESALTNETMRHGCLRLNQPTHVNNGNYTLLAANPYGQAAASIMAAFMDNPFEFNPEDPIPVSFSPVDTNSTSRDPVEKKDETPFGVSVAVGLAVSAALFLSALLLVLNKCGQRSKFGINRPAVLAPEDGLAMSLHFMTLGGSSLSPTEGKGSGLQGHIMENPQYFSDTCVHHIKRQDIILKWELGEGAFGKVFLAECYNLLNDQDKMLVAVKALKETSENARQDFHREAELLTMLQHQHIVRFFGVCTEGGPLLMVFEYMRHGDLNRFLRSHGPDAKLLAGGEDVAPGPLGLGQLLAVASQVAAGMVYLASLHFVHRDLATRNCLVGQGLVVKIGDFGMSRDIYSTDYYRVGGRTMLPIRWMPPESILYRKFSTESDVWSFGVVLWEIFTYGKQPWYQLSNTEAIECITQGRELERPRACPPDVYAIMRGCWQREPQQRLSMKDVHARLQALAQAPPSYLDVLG
Method: Cells of the continuous PC12 pheochromocytoma rat line were cultured at a concentration of 4×10^5/ml in RPMI 1640 medium, supplemented with 5% glutamine, antibiotics, and in the absence of serum, in 24-well plates for 6 hours. Subsequently, NGF at a final concentration of 10 ng/ml or alternatively the compounds of formula (I), at the final concentration of 10 μm, were added to these cultures. After 20 minutes, the cells were thus lysed in RIPA buffer (20 mM Tris-HCl, pH 7.5, 150 mM NaCl, 1 mM Na2 EDTA, 1 mM EGTA, 1% NP-40, 1% sodium deoxycholate, 25 mM sodium pyrophosphate, 1 mMβ-glycerophosphate, 1 mM Na3VO4, 1 μg/ml leupeptin) for biochemical analysis by means of Western blotting (WB) technique, using specific antibodies for the phosphorylated form of the tyrosines 490, 674/675 or 785.
The graphs show the phosphorylation values of the indicated tyrosines (Y490, Y674/675, Y785), expressed as the ratio of the intensities of the bands observed in WB, developed with the respective anti-phosphotyrosine antibodies, to the band relating to the total TrkA protein. It is clear that the mimetics very strongly induce the phosphorylation of Y490 and much less that of the other tyrosines.

NGF: recombinant human NGF, the native neurotrophin used as comparator at 10 ng/ml
MKP-1 protein levels (ratio MKP1 band to β-actin) (MKP-1 protein): significantly higher than the control
percentage of apoptotic cells (Annexin-V positive) (Murine cardiomyocytes): much lower percentage of apoptotic cells than the controls
dephosphorylation of p38 MAPK (p38 MAPK protein): marked dephosphorylation of p38 MAPK
phosphorylation of TrkA tyrosines 490, 674/675, 785 (TrkA receptor): invariably induced the phosphorylation of all tyrosines

From patent US9932352B2, “Compounds for the treatment of ischemia-reperfusion-related diseases” (MINERVA PATENTS S.A., priority 2012, dated 2018)
